Measured values reported in patent USRE39072E1, “2-aminopropane-1,3-diol compounds, medicinal use thereof, and intermediates in synthesizing the same” (Mitsubishi Pharma Corporation, priority 1997, dated 2006).

What was measured:
[1] = tested on: allogenic skin graft (WKAH rat to F344 rat); experiment: Allogenic skin graft in rats, WKAH rat skin to F344 rat; type: in vivo; settings: oral; for mean survival time of skin graft: once a day for 14 days, dose 1 mg/kg or 10 mg/kg (FIG. 1), not stated which
Excerpt: (§1) A full-thickness skin graft (1.5×1.5 cm) of a 4-week-old male WKAH rat or LEW rat is grafted to a graft to a graft bed on the back of a 4-week-old male F344 rat by suture. The graft is covered with a sterile gauze and bound. The bandage is removed 5 days after the grafting and the skin graft is observed daily until it is rejected. […] The number of days from the grafting to rejection is taken as a graft survival days. Test compounds are intraperitoneally, intravenously or orally administered repeatedly once a day for 14 days.
The comparative compound 1 was 2-amino-2-(2-(4-(4-phenylbutyloxy)phenyl)ethyl)propane-1,3-diol disclosed in WO94/08943, comparative compound 2 was 2-amino-2-methyl-2-(2-(4-(4-phenylbutyloxy)phenyl)butanol disclosed in WO96/06068.

[2] = tested on: allogenic skin graft (LEW rat to F344 rat); experiment: Allogenic skin graft in rats, LEW rat skin to F344 rat; type: in vivo
Excerpt: EXPERIMENTAL EXAMPLE 12 (Prolonging effect of skin graft on allogenic skin graft in rats)
as §1

[3] = Body weight change on allogenic skin graft in rats; type: in vivo, rat; settings: 13 days of consecutive repeat oral administration of 10 mg/kg, rats of allogenic skin graft test (FIG. 2)
Method: (Body weight change on allogenic skin graft in rats)
The changes in body weight in rats of Experimental Example 12 on testing of allogenic skin graft in rats, after 13 days of consecutive repeat oral administration of 10 mg/kg of test compounds are shown in FIG. 2.

Row | Structure (SMILES) | prolonging effect on graft survival compared with comparative compound 2 [1] | prolonging effect on graft survival days compared to control group and comparative compound 1 group [1] | mean survival time of skin graft [1] [days] | prolonging effect on graft survival compared to control group administered with vehicle alone [2] | mean survival time of skin graft ([2]; dose not stated) [days] | change in body weight [3]
1 | NC(CO)(CO)CCc1ccc(C(=O)CCCCc2ccccc2)cc1 [Compound (I-a), 2-amino-2-(2-(4-(1-oxo-5-phenylpentyl)phenyl)ethyl)propane-1,3-diol] | equivalent prolonging effect | prolonged graft survival days statistically significantly | 16.6 ± 1.2 | statistically significant prolonging effect | ≥ 20 | natural gain of body weight as in the control group
2 | NC(CO)(CO)CCc1ccc(OCCCCc2ccccc2)cc1 [comparative compound 1, 2-amino-2-(2-(4-(4-phenylbutyloxy)phenyl)ethyl)propane-1,3-diol, reference compound] | – | – | 11.9 ± 0.7 | – | – | a suppressive effect on the gain of the body weight
3 | CC(N)(CO)CCc1ccc(OCCCCc2ccccc2)cc1 (stereo not shown) [comparative compound 2, reference compound] | – | – | 15.6 ± 1.4 | – | – | a suppressive effect on the gain of the body weight
